# Literature values in patent US5089474A, “Novel microproteins” (Roussel Uclaf, priority 1989, dated 1992).
# Test system: trypsin
# Conditions: statement in words on the known EETI II; cited from earlier work
substance,measurement,value
EETI II,property of inhibiting trypsin,inhibiting trypsin
